How the values were obtained:
[1] = tested on: Italian ryegrass (Lolium multiflorum); experiment: Test A postemergence application; format: in vivo; details: approx. 10 days
Procedure, shortened: (§1)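 Visual injury score, 0–100 scale (100 = complete control), versus untreated plants after ~10 days greenhouse. Pre: directed soil spray on seeded loam/sand. Post: 2–10 cm plants, 1–2 leaves. Solvent/surfactant formulation.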

[2] = tested on: barnyardgrass (Echinochloa crus-galli); experiment: Test A postemergence application; format: in vivo; details: approx. 10 days
Procedure, shortened: as §1

[3] = tested on: blackgrass (Alopecurus myosuroides); experiment: Test A postemergence application; format: in vivo; details: approx. 10 days
Procedure, shortened: as §1

corn (Zea mays) = experiment: Test A postemergence application; format: in vivo; details: approx. 10 days
Procedure, shortened: as §1

[4] = tested on: galium (catchweed bedstraw, Galium aparine); experiment: Test A postemergence application; format: in vivo; details: approx. 10 days
Procedure, shortened: as §1

[5] = tested on: giant foxtail (Setaria faberii); experiment: Test A postemergence application; format: in vivo; details: approx. 10 days
Procedure, shortened: as §1

kochia (Kochia scoparia) = experiment: Test A postemergence application; format: in vivo; details: approx. 10 days
Procedure, shortened: as §1

[6] = tested on: pigweed (Amaranthus retroflexus); experiment: Test A postemergence application; format: in vivo; details: approx. 10 days
Procedure, shortened: as §1

[7] = tested on: ragweed (common ragweed, Ambrosia elatior); experiment: Test A postemergence application; format: in vivo; details: approx. 10 days
Procedure, shortened: as §1

[8] = tested on: wheat (Triticum aestivum); experiment: Test A postemergence application; format: in vivo; details: approx. 10 days
Procedure, shortened: as §1

[9] = tested on: chickweed (common chickweed, Stellaria media); experiment: Test C postemergence; format: in vivo; details: scale 0 to 100, 0 is no effect, 100 is complete control
Procedure, shortened: (§2)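 Surfactant-containing, non-phytotoxic solvent formulation applied either to soil right after sowing (loam/sand) or over the top of emerged plants 2–18 cm tall. Effects were scored visually after 13–15 days, where 0 means no effect and 100 complete control.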

[10] = tested on: lambsquarters (Chenopodium album); experiment: Test C postemergence; format: in vivo; details: scale 0 to 100, 0 is no effect, 100 is complete control
Procedure, shortened: as §2

[11] = tested on: large (Lg) crabgrass (Digitaria sanguinalis); experiment: Test C postemergence; format: in vivo; details: scale 0 to 100, 0 is no effect, 100 is complete control
Procedure, shortened: as §2

[12] = tested on: oilseed rape (Brassica napus); experiment: Test C postemergence; format: in vivo; details: scale 0 to 100, 0 is no effect, 100 is complete control
Procedure, shortened: as §2

[13] = tested on: pigweed (Amaranthus retroflexus); experiment: Test C postemergence; format: in vivo; details: scale 0 to 100, 0 is no effect, 100 is complete control
Procedure, shortened: as §2

[14] = tested on: ragweed (common ragweed, Ambrosia elatior); experiment: Test C postemergence; format: in vivo; details: scale 0 to 100, 0 is no effect, 100 is complete control
Procedure, shortened: as §2

wild oat (Avena fatua) = experiment: Test C postemergence; format: in vivo; details: scale 0 to 100, 0 is no effect, 100 is complete control
Procedure, shortened: as §2

In the case of `O=c1cccc(Oc2ncc(Cl)cn2)n1-c1ccc(Cl)cc1` [Compound 1, 1-(4-chlorophenyl)-6-[(5-chloro-2-pyrimidinyl)oxy]-2(1H)-pyridinone], the “Plant response rating (0 to 100 scale, 0 no effect, 100 complete control), Ryegrass, Italian” value ([1]; 125 g ai/ha) is reported as 0, the “Plant response rating (0 to 100 scale, 0 no effect, 100 complete control), Ryegrass, Italian” value ([1]; 500 g ai/ha) is reported as 70 and the “Plant response rating (0 to 100 scale, 0 no effect, 100 complete control), Barnyardgrass” value ([2]; 125 g ai/ha) is reported as 20. For the same molecule, the “Plant response rating (0 to 100 scale, 0 no effect, 100 complete control), Barnyardgrass” value ([2]; 500 g ai/ha) was 100, the “Plant response rating (0 to 100 scale, 0 no effect, 100 complete control), Blackgrass” value ([3]; 125 g ai/ha) was 20 and the “Plant response rating (0 to 100 scale, 0 no effect, 100 complete control), Blackgrass” value ([3]; 500 g ai/ha) was 90. The “Plant response rating (0 to 100 scale, 0 no effect, 100 complete control), Corn” value (corn (Zea mays); 125 g ai/ha) was 30, the “Plant response rating (0 to 100 scale, 0 no effect, 100 complete control), Corn” value (corn (Zea mays); 500 g ai/ha) was 30 and the “Plant response rating (0 to 100 scale, 0 no effect, 100 complete control), Galium” value ([4]; 125 g ai/ha) was 50. For the same molecule, the “Plant response rating (0 to 100 scale, 0 no effect, 100 complete control), Galium” value ([4]; 500 g ai/ha) was 100, the “Plant response rating (0 to 100 scale, 0 no effect, 100 complete control), Foxtail, Giant” value ([5]; 125 g ai/ha) was 70 and the “Plant response rating (0 to 100 scale, 0 no effect, 100 complete control), Foxtail, Giant” value ([5]; 500 g ai/ha) was 100. The “Plant response rating (0 to 100 scale, 0 no effect, 100 complete control), Kochia” value (kochia (Kochia scoparia); 125 g ai/ha) was 90, the “Plant response rating (0 to 100 scale, 0 no effect, 100 complete control), Kochia” value (kochia (Kochia scoparia); 500 g ai/ha) was 100 and the “Plant response rating (0 to 100 scale, 0 no effect, 100 complete control), Pigweed” value ([6]; 125 g ai/ha) was 100. The “Plant response rating (0 to 100 scale, 0 no effect, 100 complete control), Pigweed” value ([6]; 500 g ai/ha) was 100, the “Plant response rating (0 to 100 scale, 0 no effect, 100 complete control), Ragweed” value ([7]; 125 g ai/ha) was 20 and the “Plant response rating (0 to 100 scale, 0 no effect, 100 complete control), Ragweed” value ([7]; 500 g ai/ha) was 20. For the same molecule, the “Plant response rating (0 to 100 scale, 0 no effect, 100 complete control), Wheat” value ([8]; 125 g ai/ha) was 30, the “Plant response rating (0 to 100 scale, 0 no effect, 100 complete control), Wheat” value ([8]; 500 g ai/ha) was 40 and the “Plant response rating, Chickweed” value ([9]; 16 g ai/ha) was 10. For the same molecule, the “Plant response rating, Chickweed” value ([9]; 31 g ai/ha) was 10, the “Plant response rating, Chickweed” value ([9]; 62 g ai/ha) was 50 and the “Plant response rating, Chickweed” value ([9]; 125 g ai/ha) was 65. The “Plant response rating, Lambsquarters” value ([10]; 16 g ai/ha) was 15, the “Plant response rating, Lambsquarters” value ([10]; 31 g ai/ha) was 15 and the “Plant response rating, Lambsquarters” value ([10]; 62 g ai/ha) was 45. For the same molecule, the “Plant response rating, Lambsquarters” value ([10]; 125 g ai/ha) was 55, the “Plant response rating, Crabgrass, Large” value ([11]; 16 g ai/ha) was 10 and the “Plant response rating, Crabgrass, Large” value ([11]; 31 g ai/ha) was 15. For the same molecule, the “Plant response rating, Crabgrass, Large” value ([11]; 62 g ai/ha) was 15, the “Plant response rating, Crabgrass, Large” value ([11]; 125 g ai/ha) was 20 and the “Plant response rating, Oilseed Rape” value ([12]; 16 g ai/ha) was 10. For the same molecule, the “Plant response rating, Oilseed Rape” value ([12]; 31 g ai/ha) was 30, the “Plant response rating, Oilseed Rape” value ([12]; 62 g ai/ha) was 70 and the “Plant response rating, Oilseed Rape” value ([12]; 125 g ai/ha) was 80. For the same molecule, the “Plant response rating, Pigweed” value ([13]; 16 g ai/ha) was 35, the “Plant response rating, Pigweed” value ([13]; 31 g ai/ha) was 95 and the “Plant response rating, Pigweed” value ([13]; 62 g ai/ha) was 60. The “Plant response rating, Pigweed” value ([13]; 125 g ai/ha) was 80, the “Plant response rating, Ragweed” value ([14]; 16 g ai/ha) was 10 and the “Plant response rating, Ragweed” value ([14]; 31 g ai/ha) was 70. The “Plant response rating, Ragweed” value ([14]; 62 g ai/ha) was 35, the “Plant response rating, Ragweed” value ([14]; 125 g ai/ha) was 40 and the “Plant response rating, Oat, Wild” value (wild oat (Avena fatua); 16 g ai/ha) was 5. The “Plant response rating, Oat, Wild” value (wild oat (Avena fatua); 31 g ai/ha) was 5, the “Plant response rating, Oat, Wild” value (wild oat (Avena fatua); 62 g ai/ha) was 5 and the “Plant response rating, Oat, Wild” value (wild oat (Avena fatua); 125 g ai/ha) was 10. It also gave a melting point of 72 to 74 °C.
In the case of `O=c1cccc(Oc2ncc(Cl)cn2)n1-c1ccc(C(F)(F)F)cc1` [Compound 10], the “Plant response rating (0 to 100 scale, 0 no effect, 100 complete control), Ryegrass, Italian” value ([1]; 31 g ai/ha) is reported as 0, the “Plant response rating (0 to 100 scale, 0 no effect, 100 complete control), Ryegrass, Italian” value ([1]; 125 g ai/ha) is reported as 60 and the “Plant response rating (0 to 100 scale, 0 no effect, 100 complete control), Barnyardgrass” value ([2]; 31 g ai/ha) is reported as 40. For the same molecule, the “Plant response rating (0 to 100 scale, 0 no effect, 100 complete control), Barnyardgrass” value ([2]; 125 g ai/ha) was 90, the “Plant response rating (0 to 100 scale, 0 no effect, 100 complete control), Blackgrass” value ([3]; 31 g ai/ha) was 30 and the “Plant response rating (0 to 100 scale, 0 no effect, 100 complete control), Blackgrass” value ([3]; 125 g ai/ha) was 50. For the same molecule, the “Plant response rating (0 to 100 scale, 0 no effect, 100 complete control), Corn” value (corn (Zea mays); 31 g ai/ha) was 20, the “Plant response rating (0 to 100 scale, 0 no effect, 100 complete control), Corn” value (corn (Zea mays); 125 g ai/ha) was 30 and the “Plant response rating (0 to 100 scale, 0 no effect, 100 complete control), Galium” value ([4]; 31 g ai/ha) was 30. The “Plant response rating (0 to 100 scale, 0 no effect, 100 complete control), Galium” value ([4]; 125 g ai/ha) was 80, the “Plant response rating (0 to 100 scale, 0 no effect, 100 complete control), Foxtail, Giant” value ([5]; 31 g ai/ha) was 50 and the “Plant response rating (0 to 100 scale, 0 no effect, 100 complete control), Foxtail, Giant” value ([5]; 125 g ai/ha) was 90. For the same molecule, the “Plant response rating (0 to 100 scale, 0 no effect, 100 complete control), Kochia” value (kochia (Kochia scoparia); 31 g ai/ha) was 80, the “Plant response rating (0 to 100 scale, 0 no effect, 100 complete control), Kochia” value (kochia (Kochia scoparia); 125 g ai/ha) was 90 and the “Plant response rating (0 to 100 scale, 0 no effect, 100 complete control), Pigweed” value ([6]; 31 g ai/ha) was 70. The “Plant response rating (0 to 100 scale, 0 no effect, 100 complete control), Pigweed” value ([6]; 125 g ai/ha) was 90, the “Plant response rating (0 to 100 scale, 0 no effect, 100 complete control), Ragweed” value ([7]; 31 g ai/ha) was 10 and the “Plant response rating (0 to 100 scale, 0 no effect, 100 complete control), Ragweed” value ([7]; 125 g ai/ha) was 20. For the same molecule, the “Plant response rating (0 to 100 scale, 0 no effect, 100 complete control), Wheat” value ([8]; 31 g ai/ha) was 0, the “Plant response rating (0 to 100 scale, 0 no effect, 100 complete control), Wheat” value ([8]; 125 g ai/ha) was 10 and the “Plant response rating, Chickweed” value ([9]; 16 g ai/ha) was 70. For the same molecule, the “Plant response rating, Chickweed” value ([9]; 31 g ai/ha) was 30, the “Plant response rating, Chickweed” value ([9]; 62 g ai/ha) was 70 and the “Plant response rating, Chickweed” value ([9]; 125 g ai/ha) was 80. For the same molecule, the “Plant response rating, Lambsquarters” value ([10]; 16 g ai/ha) was 65, the “Plant response rating, Lambsquarters” value ([10]; 31 g ai/ha) was 75 and the “Plant response rating, Lambsquarters” value ([10]; 62 g ai/ha) was 75. The “Plant response rating, Lambsquarters” value ([10]; 125 g ai/ha) was 90, the “Plant response rating, Crabgrass, Large” value ([11]; 16 g ai/ha) was 25 and the “Plant response rating, Crabgrass, Large” value ([11]; 31 g ai/ha) was 35. For the same molecule, the “Plant response rating, Crabgrass, Large” value ([11]; 62 g ai/ha) was 60, the “Plant response rating, Crabgrass, Large” value ([11]; 125 g ai/ha) was 80 and the “Plant response rating, Oilseed Rape” value ([12]; 16 g ai/ha) was 5. The “Plant response rating, Oilseed Rape” value ([12]; 31 g ai/ha) was 25, the “Plant response rating, Oilseed Rape” value ([12]; 62 g ai/ha) was 80 and the “Plant response rating, Oilseed Rape” value ([12]; 125 g ai/ha) was 80. For the same molecule, the “Plant response rating, Pigweed” value ([13]; 16 g ai/ha) was 70, the “Plant response rating, Pigweed” value ([13]; 31 g ai/ha) was 90 and the “Plant response rating, Pigweed” value ([13]; 62 g ai/ha) was 80. For the same molecule, the “Plant response rating, Pigweed” value ([13]; 125 g ai/ha) was 90, the “Plant response rating, Ragweed” value ([14]; 16 g ai/ha) was 25 and the “Plant response rating, Ragweed” value ([14]; 31 g ai/ha) was 25. For the same molecule, the “Plant response rating, Ragweed” value ([14]; 62 g ai/ha) was 60, the “Plant response rating, Ragweed” value ([14]; 125 g ai/ha) was 65 and the “Plant response rating, Oat, Wild” value (wild oat (Avena fatua); 16 g ai/ha) was 0. The “Plant response rating, Oat, Wild” value (wild oat (Avena fatua); 31 g ai/ha) was 5, the “Plant response rating, Oat, Wild” value (wild oat (Avena fatua); 62 g ai/ha) was 15 and the “Plant response rating, Oat, Wild” value (wild oat (Avena fatua); 125 g ai/ha) was 25.

Reference: patent US9963442B2, “Pyridones as herbicides” (E I DU PONT DE NEMOURS AND COMPANY, priority 2014, dated 2018)
